Each structure is given as a SMILES string.

The test system of the test is T1, rHrGSTm1.
T1 construct: gene HrGSTm1; full-length CDS (672-bp ORF); 223 aa in abstract, 233; recombinant 44 kDa, no tag removal described
The experiment in a line: GSH conjugation, absorbance at […] nm, Michaelis-Menten fit. The note with it: 5 mM GSH; CDNB varied 0.125-2 mM (printed unit μM lies far below this range, possibly meant mM); abstract calls glutathione the substrate. Format: biochemical, Hyalomma rufipes.

The term Km denotes the substrate concentration at which the rate is half of its maximum. In the case of `O=[N+]([O-])c1ccc(Cl)c([N+](=O)[O-])c1` [CDNB, 1-Chlom-2,4-Dinitrobenzene], the Km was determined as 2.21 ± 0.76 µM.

The record behind these values is article PMC10759735, “The diverse functions of Mu-class Glutathione S-transferase HrGSTm1 during the development of Hyalomma rufipes with a focus on the detoxification metabolism of cyhalothrin” (Parasites & Vectors, 2024).
